# Laboratory results published in article PMC8838189, “Thiazolidinedione Derivatives: In Silico, In Vitro, In Vivo, Antioxidant and Anti-Diabetic Evaluation” (Molecules, 2022).
# Experiments:
# [1] = tested on: alloxan-induced diabetic rat model; assay: Serum lipid profile (CH, TG, HDL, LDL, VLDL) in alloxan-induced diabetic rats; assay type: in vivo, Albino male Wistar rats; settings: 50 mg/Kg; for Serum CH (cholesterol) level: all experimental times
# Procedure: The blood samples (0.5 mL) were withdrawn from each rat using the retro-orbital plexus and the other steps for biochemical analysis were adapted. (Supplementary Materials).
# The serious side effect related to diabetes is hyperlipidemia. The insulin deficiency promotes adipocytes to generate fatty acid, hepatic phospholipids and cholesterol. Thus, the levels of cholesterol (CH), triglyceride (TG), high (HDL), low (LDL) and very low (VLDL) density lipoproteins, in serum for alloxan-loaded diabetes have been measured at 50 mg/Kg concentration (Figure 7). All lipid parameters for all tested compounds have (p < 0.05) compared to the diabetic control group (Figure 7).
# Figure 7 The level of (A) CH (Cholesterol); (B) TG (Triglyceride); (C) HDL (High density lipoprotein); (D) LDL (Low density lipoprotein) and (E) VLDL (Very low density lipoprotein) in serum of hyperglycemic loaded rats. […] Data analyzed by one way ANOVA followed by LSD test and expressed as mean ± SEM from five observations. […]
# glucose level of rats was determined using glucose strips. Rats with plasma glucose concentration N 300 mg/dl (Gadadare et al., 2015) were considered diabetic and included […]
# The blood samples (0.5 ml) were withdrawn from the retro-orbital plexus of each rat under mild anesthesia using a glass capillary tube after fasting for 6 h. Blood samples were centrifuged at 3000 rpm for 15 min. The serum was kept at −80 °C until analyzed. Speciﬁc reagent kits were used to determine levels of serum triglyceride (TG), serum cholesterol (CH), serum low density lipoproteins (LDL), serum high density lipoproteins (HDL) for assessing the lipid proﬁle.
# Data are expressed as mean ± S.E. Data analysis was done using one way analysis of variance (ANOVA) followed by least significant difference (LSD) test for multiple comparisons. Difference was considered significant when p is less than 0.05. SPSS (version 11) program was used to carry out
# [2] = tested on: alloxan-induced diabetic rat model; assay: Oral anti-hyperglycemic activity, blood glucose level in alloxan-induced diabetic rat model; assay type: in vivo, Albino male Wistar rats
# Procedure: Albino male Wistar rats (150 ± 20 g) were obtained. (Supplementary Materials).
# The animals were kept fasting overnight (12 h) before induction of diabetes. Diabetes was induced in rats as reported and (Supplementary Materials).
# Blood samples were obtained from the tail vein of all rats, the blood glucose levels (BGLs) were measured and monitored in all treatment groups at days 0 (basal), 2, 4, 15 and 30 as reported.
# Oral anti-hyperglycemic activity was evaluated for compounds 4–7 by an alloxan-induced diabetic rat model. […] The BGL was monitored for each tested compound at three different doses (50,100 and 250 mg/Kg) and for five experimental period durations (0, 2, 4, 15, 30 days). […]
# The animals were kept fasting overnight (12 h) before induction of diabetes. […]
# [3] = Radical scavenging by DPPH method; settings: DPPH assay
# Procedure: The assay of 2,2-Diphenyl-1-picrylhydrazyl radical (DPPH) was performed according to the method at.
# The antioxidant activity was examined for the hybrids (4–7) using the stable DPPH assay. The antioxidant results from different concentrations (0.16, 0.8, 4, 20, 40, 200 and 1000 µg/mL) were represented in Figure 5 as IC50 value (concentration of compound is essential for rising 50% of reducing power for H-donating or radical scavenging). The effect of the scavenging is rising in the trend 4 > 5 > 6 > STD > 7. […] After blocking the hydrazide group by aldehyde motifs in compounds 6 and 7, the activity was decreased. High scavenging activity may be due to the stabilization of the lone pair in the conjugated system by the presence of terminal ester or hydrazide.
# α-amylase enzyme = assay: In vitro inhibition of α-amylase assay; assay type: biochemical; settings: six concentrations 5-40 µg/mL, non-linear regression; read-out: IC50 against α-amylase enzyme (converted)
# Sequence of α-amylase enzyme (P04746 16-511): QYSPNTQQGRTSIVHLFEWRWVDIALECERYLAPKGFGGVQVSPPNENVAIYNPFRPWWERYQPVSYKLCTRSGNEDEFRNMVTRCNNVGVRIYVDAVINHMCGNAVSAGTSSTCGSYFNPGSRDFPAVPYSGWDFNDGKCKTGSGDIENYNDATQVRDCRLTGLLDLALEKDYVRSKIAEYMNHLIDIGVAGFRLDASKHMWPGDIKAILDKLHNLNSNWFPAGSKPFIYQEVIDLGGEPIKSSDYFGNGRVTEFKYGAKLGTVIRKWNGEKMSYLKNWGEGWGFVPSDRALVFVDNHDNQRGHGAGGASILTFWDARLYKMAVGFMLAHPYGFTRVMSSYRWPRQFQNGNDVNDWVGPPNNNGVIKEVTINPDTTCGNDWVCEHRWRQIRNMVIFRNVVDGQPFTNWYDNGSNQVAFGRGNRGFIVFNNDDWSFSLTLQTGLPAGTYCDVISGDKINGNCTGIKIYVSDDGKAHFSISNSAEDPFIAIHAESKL
# Procedure: - inhibition in-vitro of α-Amylase assay:
# The α-amylase activity of the compounds were determined using a method in which 250 μL of each compound, or Metformin .HCl, dissolved in ethanol to obtain different concentrations (5, 10, 15, 20,30 and 40 μg/mL ), was mixed with 500 μL of α-amylase (2 U/mL ) in phosphate buffer (100 mM, pH 6.8) and incubated at 37 °C for 10 min. Thereafter, 50 μL
# (1 picture or pasted object on this page, not shown here) […]
# of 1% starch, dissolved in the same buffer, was added to the mixture and the samples were incubated again at 37 °C. After 30 min, dinitrosalicylic acid (DNS) colour reagent (1 mL) was added. The (DNS) was prepared by adding 437mg of 3,5- dinitro salicylic acid in 20 mL distilled water to12 g of sodium potassium tartrate in 8 mL of 2 M NaOH, then added distilled water until the solution reach to 40 mL ). the samples were boiled for 10 min in water bath. For non-enzymatic reactions, the assays were performed with a blank containing all of the components except the enzyme.
compound,measurement,setting,value
"5-(Benzo[d][1,3]dioxol-5-ylmethylene)-3-(2-(2,4-dioxo thiazolidin-3-yl) acetyl) thiazolidine-2,4-dione [Compound 6]",Serum CH (cholesterol) level reduction,[1]; 2nd and 4th days,moderate reduction
same,Serum CH (cholesterol) level reduction,[1]; 15th and 30th days,best reduction of the CH level
same,Serum VLDL level,[1]; 15th and 30th days,lower than normal value
same,Blood glucose level (BGL) compared to DC,"[2]; 50 mg/Kg, 2nd and 4th days",suffered from controlling the BGL
same,Blood glucose level (BGL) compared to DC,"[2]; 100 mg/Kg, all of the experiments",increased the BGL rather than DC
"CCOC(=O)CN1C(=O)SC(=Cc2ccc3c(c2)OCO3)C1=O [Compound 4, Ethyl-2-(5-(benzo[d][1,3]dioxol-5-ylmethylene)-2,4-dioxothiazolidin-3-yl)acetate]","Serum VLDL level, regulation to nearly normal value",[1]; 0th and 15th days,failed to do so
same,Serum TG (triglyceride) level compared to DC,[1]; 2nd day,failed to regulate the TG level lower than the DC level
same,Serum VLDL level,"[1]; 2nd, 14th and 30th days",nearly normal value
same,Serum CH (cholesterol) level,[1],moderate regulation of the CH value
same,Blood glucose level (BGL) compared to DC,"[2]; 50 mg/Kg, 2nd, 4th and 15th days",suffered from controlling the BGL
same,Blood glucose level (BGL) compared to DC,"[2]; 100 mg/Kg, 15th and 30th days",significance decrease in the BGL
same,Blood glucose level (BGL) compared to DC,"[2]; 250 mg/Kg, all durations of the experiment",failed to control BGL
"NNC(=O)CN1C(=O)SC(=Cc2ccc3c(c2)OCO3)C1=O [Compound 5, 2-(5-(Benzo[d][1,3]dioxol-5-ylmethylene)-2,4-dioxothiazolidin-3-yl)acetohydrazide]",Serum CH (cholesterol) level reduction,[1]; 2nd day,moderate reduction value
same,Serum CH (cholesterol) level reduction,[1]; 15th and 30th days,best reduction of the CH level
same,Serum VLDL level,[1]; 15th and 30th days,lower than normal value
same,Blood glucose level (BGL) compared to DC,"[2]; 100 mg/Kg, 15th and 30th days",significance decrease in the BGL
same,Blood glucose level (BGL) regulation,"[2]; 250 mg/Kg, 15th and 30th days",organized the BGL more than 6
COc1ccc(/C=N/NC(=O)CN2C(=O)S/C(=C/c3ccc4c(c3)OCO4)C2=O)cc1 [Compound 7],Serum CH (cholesterol) level,[1],worst CH level from all compounds
same,Blood glucose level (BGL) reduction,"[2]; 50 mg/Kg, 15th and 30th days",highest percentage in the BGL reduction
same,Blood glucose level (BGL) compared to DC,"[2]; 100 mg/Kg, 15th and 30th days",insignificant decrease in the BGL
same,Blood glucose level (BGL) compared to DC,"[2]; 250 mg/Kg, 4th, 15th and 30th days",reduced BGL significantly
same,Antioxidant (scavenging) activity compared to STD (ascorbic acid),[3],lower scavenging activity than STD
same,IC50,α-amylase enzyme,130 µM
